Laboratory results from patent US20100041045A1, “NUCLEIC ACID FLUORESCENT STAINS” (SIGMA-ALDRICH CO., priority 2007, published 2010).
Read-outs that look alike come from different tables or passages of the source.

Columns and labels:
[1] = tested on: HindIII-digested lambda DNA; experiment: DNA gel staining, comparison of compounds 7 and 8 (Example 4); details: 200 and 20 ng/lane DNA
Description: The brightness, sensitivity, and spectral properties of two of the new unsymmetrical monomethincyanine dyes, compound 7 (SL-2833) and compound 8 (SL-2834), were compared by staining gels containing 200 ng/lane and 20 ng/lane of HindIII-digested lambda DNA. The gels were processed and imaged as described above in Example 2.

[2] = tested on: HindIII-digested lambda DNA; experiment: Prestaining of DNA during electrophoresis (Example 3)
Description: The ability of another of the new unsymmetrical monomethincyanine dyes, i.e., compound 7 (SL-2833), to stain DNA during electrophoresis (i.e., “prestain”) was compared to that of ethidium bromide (EtBr). For this, 1 μM of 7 (SL-2833) or EtBr was added to the heated agarose before the gel was poured. The gels were loaded with 200 ng/lane and 20 ng/lane of HindIII-digested lambda DNA (Cat. No. D9780; Sigma-Aldrich) and run at 90 V for about 90 min. After electrophoresis, the gels were imaged as described above in Example 2.

[3] = tested on: PstI-digested lambda DNA; experiment: Post electrophoretic staining of DNA in agarose gels (Example 2); details: for detection of stained DNA at longer wavelengths: laser scanner, 532/580 filter set
Description: The absorption and emission spectra of the unsymmetrical monomethincyanine dyes of the invention are shifted to longer wavelengths relative to those of commonly used nucleic acid stains. […] Invitrogen Corp.) and imaged using different detection devices. PstI-digested lambda DNA (Cat. No. D1793; Sigma-Aldrich, St. Louis, Mo.) was resolved on agarose gels in the presence of TBE buffer, pH 8.3. Lanes were loaded with a total of either 500 ng or 100 ng of DNA (the loading buffer contained 0.05% bromophenol blue (w/v), 40% sucrose (w/v), 0.5% SDS (w/v), and 0.1 M EDTA, pH 8). The gels were run at 90 V for about 90 min. After electrophoresis, the gels were submerged in a solution of TBE buffer comprising 2 μM of 6 (SL-2791) or SG1 for 1 hr. After a quick rinse, the gels were imaged with 1) a 300 nm UV transilluminator (Cat. No. T2202; Sigma-Aldrich) or a 450 nm (blue light) transilluminator (Dark Reader™; Clare Chemical Research, Denver, Colo.) and a CCD camera imaging system (Gel Logic 100; Kodak Imaging, Rochester, N.Y.) equipped with a 535 nm or a 590 nm emission filter and 2) a laser scanner fluorescent image analyzer system (FLA-300; Fujifilm, Japan) equipped with excitation/emission filter sets of 473/520 nm or 532/580 nm.

[4] = tested on: HindIII-digested lambda DNA; experiment: Digestion of stained DNA (Example 7); assay type: biochemical; details: 6557 bp band eluted from gel, restriction enzyme
Description: To determine whether the binding between DNA and an unsymmetrical monomethincyanine dye was strong enough to inhibit the digestion of the DNA, HindIII-digested lambda DNA (1 μg/lane) was resolved on an agarose gel (0.8%), as described above. The DNA was stained either during or after electrophoresis. The band-of-interest (e.g., the 6557 bp band) was excised from the gel using a blue light transilluminator [see FIG. 6A, the DNA was stained with 6 (SL-2791)]. DNA was eluted from the piece of agarose using a spin column (GenElute Agarose Spin Column, Cat. No. 5-6500; Sigma-Aldrich). The collected DNA was digested with an appropriate restriction enzyme, and the reaction products were analyzed on a new agarose gel (1.2%) using compound 9 (SL-2845). The left lane of FIG. 6B presents the undigested DNA and the right lane of FIG. 6B presents the digested products.

[5] = tested on: HindIII-digested lambda DNA and 0.2-10 kb RNA markers; experiment: Staining of DNA and RNA in gels (Example 5); details: 200 ng/lane DNA, 1 μg/lane RNA; laser scanner 532/580 nm
Description: Gels were loaded with 200 ng/lane of HindIII-digested lambda DNA and 1 μg/lane of 0.2-10 kb RNA markers (Cat. No. R1386; Sigma-Aldrich). The RNA loading buffer contained 62.5% formamide (v/v), 1.14 M formaldehyde, 0.2 mg/ml bromophenol blue, 0.2 mg/ml xylene cyanol, and 1.25×MOPS-EDTA-sodium acetate buffer. After electrophoresis the gels were stained with compound 9 (SL-2845), SG1, or the RNA-specific stain SYBR® Green 2 (SG2; Invitrogen) and imaged as described above in Example 2.

[6] = tested on: human alu-consnesus sequence; experiment: Real-time qPCR (Example 9); assay type: biochemical
Description: PCR was performed on human genomic DNA obtained from 0.16 million human peripheral blood leukocytes by direct lysis in a volume of 1 ml as described by Christopherson et al, PCR-Based Assay To Quantify Human Immunodeficiency Virus Type 1 DNA In Peripheral Blood Mononuclear Cells, 2000, J Clin Microbiol., pp. 630-634, Vol. 38. […] Additionally, a non-template control containing deionised water as sample was used. Two μl per sample were then used for real-time PCR as follows: PCR reactions were run in JumpStart™ ReadyMix™ (Sigma Aldrich, order number p2893), containing salt, buffer, Taq-DNA polymerase and deoxynucleotidetriphosphates in a final volume of 32 μl. PCR primers were added to a final concentration of 1 μM. To obtain optimal performance in real time PCR, the PCR mix was supplemented with additional MgCL2 to a final concentration of 3 mM. The DNA binding dye Nancy-520 was added to a final concentration of 200 nM. PCR primers mf39 (5′-[…]-3′) and mf40 (5′-[…]-3′) were used at a final concentration of 1 μM. These primers amplify a 133 base pair fragment of the human alu-consnesus sequence (see Clayerie et al, Alu alert, 1994, Nature, pp. 752, Vol. 371.) (available from the Genbank database: http://www.ncbi.nlm.nih.gov/Genbank/, entry nr: HSU14574). Because these repetitive sequences are highly abundant in the human genome, the PCR for alu sequences can be used to detect minute amounts of human DNA.
Real-time PCR was performed in a real-time PCR thermocycler (IQ-5, Biorad, Basel Switzerland) using the following cycling profile: Initial denaturation 94° C. 20 sec, followed for 40 cycles (94° C. 5 sec, 60° C. 5 sec, 72° C. 20 sec, 60° C. 60 sec with real-time monitoring). After cycling a melting curve analysis ranging from 55° C.-92° C. was performed with temperature increments of 0.5° C. and measurement intervals of 30 sec. Five different optical filter-sets were used for real-time PCR monitoring and melting-curve analysis according to the suppliers instructions (see table 1).
Data (FIG. 9A, 9C, 9D) were analyzed using the IQ5 software (version 2.0) or by linear regression analysis (FIG. 9B) using the statistical software GraphPad Prism version 5.01 (GraphPad Software, Inc., La Jolla, Calif.)
The first number, 485, indicates the center of the wavelength of light. The second number, 20 indicates the total breadth of wavelengths of light that can pass through it.

[7] = tested on: DNA polymerase; experiment: Inhibition of DNA polymerase activity in qPCR; assay type: biochemical; details: concentrations greater than 0.5 μM
[8] = tested on: dsDNA; experiment: Binding specificity and fluorescence with dsDNA versus ssDNA
[9] = tested on: HindIII-digested lambda DNA; experiment: Determination of the lower limit of detection (Example 6); details: 300 nm UV transilluminator, CCD camera, 590 nm emission filter
Description: HindIII-digested lambda DNA (200 ng/lane and 20 ng/lane) was resolved on agarose gels, as described above. EtBr was added to one gel such that the DNA was stained during electrophoresis; the other gels were stained with compound 6 (SL-2791), 7 (SL-2833), 8 (SL-2834), 9 (SL-2845), or SG1 after electrophoresis. Gels were imaged using a 300 nm UV transilluminator and a CCD camera with a 590 nm emission filter.

[10] = tested on: DNA polymerase; details: high concentrations (>0.5 μM); cited from earlier work
[11] = 1 μM in gel, UV transilluminator

Cc1ccc2c(c1)/C(=C/c1sc3ccccc3[n+]1CCO)C=C(c1ccccc1)N2C [Compound 8]
detection using the laser-based long wavelength imaging system [1]: clearly detected
fluorescence with blue light transilluminator and 590 nm filter as compared to UV transilluminator [1]: reduced fluorescence

Cc1ccc2c(c1)/C(=C/c1sc3ccccc3[n+]1CCCO)C=C(c1ccccc1)N2C [Compound 7]
background fluorescence at top of gels compared with EtBr [2, 11]: lower background fluorescence
fluorescence of stained DNA bands compared with EtBr [2, 11]: increased fluorescence
imaging of stained DNA at longer wavelengths ([2]; laser scanner 473/520 and 532/580 nm filter sets, low levels of DNA = 20 ng/lane): readily imaged
detection using the laser-based long wavelength imaging system [1]: clearly detected
fluorescence with blue light transilluminator and 590 nm filter as compared to UV transilluminator [1]: reduced fluorescence

CN1C(c2ccccc2)=C/C(=C\c2sc3ccccc3[n+]2CCCO)c2ccccc21 [Compound 6, 1-Methyl-4-[(2,3-dihydro-3-(3-hydroxypropyl)benzo-1,3-thiazol-2-yl)-methyliden]-2-phenyl-quinolinium perchlorate]
brightness of stained DNA bands compared with SG1 ([3]; 2 μM stain in TBE for 1 hr, under each detection condition): much brighter
detection of stained DNA at longer wavelengths [3]: could be detected at longer wavelengths
enzymatic digestion of stained DNA [4]: may be enzymatically digested

CN1C(c2ccccc2)=C/C(=C\c2sc3ccccc3[n+]2CCCCO)c2ccccc21 [Compound 9]
staining intensity of DNA versus RNA [5]: stained DNA more intensely than RNA
robustness in DNA melt curve analysis ([6]; 55° C.-92° C. following PCR cycling): sufficiently robust
thermostability ([6]; PCR temperature cycles): high thermostability
Performance of PCR in measuring Nancy-520 fluorescence ([6]; filter-set CY3, 545/30X 585/20M): Filter set unsuitable (data not shown)
Performance of PCR in measuring Nancy-520 fluorescence ([6]; filter-set CY5, 630/30X 685/30M): Filter set unsuitable (data not shown)
Performance of PCR in measuring Nancy-520 fluorescence ([6]; filter-set FAM, 485/20X 530/30M): Weak
Performance of PCR in measuring Nancy-520 fluorescence ([6]; filter-set TXR, 575/30X 625/30M): Strong amplification signals (virtually
PCR signal amplitudes at lower dye concentrations ([6]; lower concentrations than 2000 nm, data not shown): Suitable although slightly reduced signal amplitudes
inhibition of DNA polymerase activity [7]: does not inhibit DNA polymerase activity
binding specificity for dsDNA [8]: high binding specificity
fluorescence in the presence of dsDNA [8]: strong fluorescence signal
fluorescence in the presence of ssDNA or in the absence of nucleic acids [8]: only weak fluorescence

CCCN(CCCN(C)C)c1cc(/C=C2/Sc3ccccc3N2C)c2ccccc2[n+]1-c1ccccc1 [SG1]
lower limit of detection, DNA per lane [9]: less than 1 ng
detection of stained DNA at longer wavelengths [3]: not visible
detection of stained DNA at longer wavelengths ([3]; listed as SYBR® Green 1): not detected
inhibition of DNA polymerase activity [10]: inhibit DNA polymerase activity
